Data from patent US12655472B2, “Microbe detection method using fish analysis” (priority 2020, dated 2026).

What was measured:
[1] = test system: E. faecalis; assay: Antibiotic susceptibility evaluation through FISH analysis (ratio of test microorganisms after about 1 hour culturing); type: cell-based; details: first microbial group treated and cultured with antibiotics
Protocol: (§1) In this example, a total of two experiments were conducted on each of E. coli K-12 bacteria as test microorganisms having antibiotic susceptibility, and E. coli ER7 bacteria as test microorganisms having antibiotic resistance, and each group was set to include E. faecalis bacteria having resistance to Cefotaxime.
(§2) The number or ratio of initial microorganisms in the first microbial group, the second microbial group, and the third microbial group was set identically.
(§3) In an embodiment, E. coli K-12 bacteria, antibiotic-resistant E. coli ER7 bacteria, and E. faecalis resistant to cefotaxime were used, and each strain was cultured up to OD 600=0.5 to obtain a sample containing the test microorganisms. On the other hand, after treating the sample with antibiotics, the amount of the test microorganisms was quantified by imaging at OD 600. In this case, the imaging process was performed by centrifugation at 3,000 g for 3 min, concentrating the sample 10-fold and fixing the same on a glass substrate coated with Vectabond.
(§4) To fix bacterial samples, a 50:1 solution of acetone and Vectabond was dropped onto a sample dish. Next, the sample dish was incubated at room temperature for 5 minutes, and washed 2 to 3 times with tertiary water, and then the water was completely removed therefrom. Thereafter, the test microorganisms samples of Example 6 were dropped on the coated sample dish, and incubated at room temperature for 30 minutes, and the remaining sample was washed three times. Next, a 3.7% formaldehyde solution was dropped on the sample dish on which the sample was fixed, and then the fixation was performed for 30 minutes at room temperature. Afterwards, it was washed 2 to 3 times with nuclease-free tertiary water. […] Finally, after immersing the sample in a 2×SSC solution diluted with nuclease-free tertiary […], a fluorescence image of the sample was acquired using a confocal fluorescence microscope.

[2] = test system: E. coli K-12; assay: as above; type: cell-based
Protocol: as §1, §2, §3, §4

**Q.** Which “growth of E. faecalis” value [1] does the source give for CO/N=C(\C(=O)N[C@@H]1C(=O)N2C(C(=O)O)=C(COC(C)=O)CS[C@H]12)c1csc(N)n1 [cefotaxime] here?
**A.** continued to grow

**Q.** And the “number of population of E. coli K-12” value ([2]; first microbial group treated and cultured with antibiotics, about 1 hour)?
**A.** rapidly reduced

**Q.** What about the “ratio of E. coli and E. faecalis” value ([2]; first microbial group, mixed E. coli and E. faecalis sample treated with antibiotic and cultured for 1 hour) of the same compound?
**A.** ratio of E. coli and E. faecalis changed
